Reference: PubChem BioAssay (NCI)
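Tested at 5 concentrations; 48 h exposure; 96-well plates; endpoints linearly interpolated, else capped at highest concentration. GI50: concentration for 50% inhibition of growth. TGI denotes the concentration required for complete inhibition of growth.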 *1 amine or outer side, *2 acyl side, *3 side chain or, on linkers, in order; H or OH if unused. Where a SMILES comes first, the peptide text is derived from it. [ ]: non-standard residue; d: D form. ξ: configuration not given here. X21 = CC[C@@H](C)C(N[*:1])C(=O)[*:2]; ξR = N=C(N)NCCCC(N)C(=O)O; ξI = CCC(C)C(N)C(=O)O; ξL = CC(C)CC(N)C(=O)O; ξK = NCCCCC(N)C(=O)O; ξV = CC(C)C(N)C(=O)O; ξA = CC(N)C(=O)O

What was measured:
Assay in all cases: NCI-60 cell line screen, 48 h
HCT-116 colon = system: HCT-116 colon
SW-620 colon = system: SW-620 colon
SK-OV-3 ovarian = system: SK-OV-3 ovarian
SK-MEL-5 melanoma = system: SK-MEL-5 melanoma
ACHN renal = system: ACHN renal
OVCAR-4 ovarian = system: OVCAR-4 ovarian
NCI-H522 lung = system: NCI-H522 lung
MCF7 breast = system: MCF7 breast
KM12 colon = system: KM12 colon
UACC-257 melanoma = system: UACC-257 melanoma

Row | Compound | GI50 (HCT-116 colon) [µM] | TGI (HCT-116 colon) [µM] | GI50 (SW-620 colon) [µM] | TGI (SW-620 colon) [µM] | GI50 (SK-OV-3 ovarian) [µM] | TGI (SK-OV-3 ovarian) [µM] | GI50 (SK-MEL-5 melanoma) [µM] | TGI (SK-MEL-5 melanoma) [µM] | GI50 (ACHN renal) [µM] | TGI (ACHN renal) [µM] | GI50 (OVCAR-4 ovarian) [µM] | TGI (OVCAR-4 ovarian) [µM] | GI50 (NCI-H522 lung) [µM] | TGI (NCI-H522 lung) [µM] | GI50 (MCF7 breast) [µM] | TGI (MCF7 breast) [µM] | GI50 (KM12 colon) [µM] | TGI (KM12 colon) [µM] | GI50 (UACC-257 melanoma) [µM] | TGI (UACC-257 melanoma) [µM]
1 | O=C1CCS/C(=N\S(=O)(=O)c2ccc(N3N=C4c5ccccc5CC4C3c3cccs3)cc2)N1C(=O)c1ccccc1 (stereo not given) | 10 | 21.6 | 13.1 | > 100 | 52.8 | > 100 | 2.56 | 6.07 | 5.18 | 18.5 | > 100 | > 100 | 14.4 | 65.1 | 9.1 | > 100 | 29.4 | 83.1 | 0.334 | 20.6
2 | Nc1nc(-c2cccc([N+](=O)[O-])c2)cc(-c2cc(-c3cccc([N+](=O)[O-])c3)nc(N)n2)n1 |  | > 100 |  | > 100 |  | > 100 |  | > 100 |  | > 100 |  | > 100 |  | > 100 |  | > 100 |  | > 100 |  | > 100
3 | CN(C)CCCn1c2nc(=O)[nH]c(=O)c-2nc2cc(Cl)c(Cl)cc21 | 0.418 | 6.71 | 2.58 | 11.7 | 22.3 | 65.6 | 1.65 | 3.12 | 3.46 | 11.8 | 6.3 | 18.8 | 2.1 | 4.23 | 0.398 | 1.64 | 8.2 | 26 | 2.23 | 5.66
4 | O=C1NN(c2ccccc2)C(=O)/C1=C/c1ccc(Br)o1 | 11.4 | 25.8 | 4.85 | 24.5 | 26.7 | > 61.4 | 1.26 | 2.05 | 13.3 | > 49.4 | 15.3 | 29.5 | 7.92 | 36.8 | 3.54 | 18.9 | 9.71 | 24 | 15.4 | 37.3
5 | CNCCCNCCCN1C(=O)c2ccc3c4c(ccc(c24)C1=O)C(=O)N(CCCNCc1ccccc1OC)C3=O | 0.27 | 1.21 | 0.365 | 5.12 | 2.95 | 23.7 | 1.1 | 2.32 | 0.5 | 3.96 | 0.642 | 2.04 | 1.23 | 2.83 | 0.512 | 3.21 | 1.18 | 3.36 | 1.35 | 2.72
6 | O=C(O)C1CCCCC1c1c2ccc(=O)cc-2oc2cc(O)ccc12 (stereo not given) |  | > 100 |  | > 100 |  | 96.5 |  | > 100 |  | > 100 |  | 88.1 |  | 62.1 |  | > 100 |  | 49.1 |  | > 100
7 | NC(=O)c1ccc2nc3c(n2c1)C(=O)C(=O)c1ccccc1-3 | 0.327 | 1.21 | 1.88 | 4.05 | 1.78 | 3.18 | 0.936 | 2.25 | 1.34 | 2.62 | 0.481 | 1.71 | 0.679 | 2.18 | 0.23 | 0.702 | 1.39 | 2.97 | 0.57 | 1.78
8 | OCc1ccc(N(CCN2CCCC2)Cc2ccc(F)cc2)cc1Cl | 13.4 | 37.3 | 16.7 | 32.9 | 7.88 | 31 | 15 | 28.4 | 21.8 | 72.3 | 11.1 | > 100 | 16.8 | 34.4 | 13.7 | 32.1 | 17.4 | 34.9 | 14.7 | 29
9 | Cc1nc(C(N)=S)sc1C(=O)C/C(=N/N)C(=O)Nc1ccc(Cl)cc1 |  | > 100 |  | > 100 |  | > 100 |  | > 100 |  | > 100 |  | > 100 |  | > 100 |  | > 100 |  | > 100 |  | > 100
10 | CCC(C)C1NC(=O)C(CC(C)C)NC(=O)C(C)NC(=O)C(C(C)C)NC(=O)C(CCCCN)NC(=O)C(CC(C)C)NC(=O)C(C(C)C)NC(=O)[C@H](C)NC(=O)C(C(C)CC)NC(=O)C(CCCN=C(N)N)NC(=O)C(CCCCN)NC(=O)C(CCCN=C(N)N)NC(=O)C(CCCCN)NC(=O)C([C@H](C)CC)NC(=O)C(CCCCN)NC1=O (stereo not given in full) (cyclo(A[ξV][ξL][ξK][ξV][ξA][ξL][ξI][ξK][X21][ξK][ξR][ξK][ξR][ξI])) | 1.35 | 2.84 | 1.56 | 3.39 | 1.99 | 5.94 | 0.6 | 1.87 | 1.79 | 4.5 | 0.72 | 10.2 | 1.45 | 3.88 | 1.54 | 5.65 | 1.73 | 3.9 | 0.476 | 2.58
11 | CCCN(CCSSCCNc1nc(N(C)O)nc(N(C)O)n1)c1nc(N(C)O)nc(N(C)O)n1 | 3.97 | > 100 | 6.72 | > 100 | 3.16 | > 100 | 8.65 | > 100 | 3.92 | > 100 | 3.29 | > 100 | 92.1 | > 100 | 4.68 | > 100 | 6.25 | > 100 | 22.7 | > 100
12 | COc1ccc(/C=C/NC=O)cc1 |  | > 100 |  | > 100 |  | > 100 |  | > 100 |  | > 100 |  | > 100 |  | > 100 |  | > 100 |  | > 100 |  | > 100
13 | O=C(COc1cccc(/C=C2\CSc3ccccc3C2=O)c1)c1ccc(Cl)cc1 | 0.689 | 1.95 | 0.231 | 0.606 | 8.97 | 41.9 | 1.8 | 3.41 | 1.78 | 3.5 | 3.09 | > 42.1 | 1.61 | 3.67 | 0.458 | 1.81 | 1.29 | 2.75 | 2.68 | 6.85
